Assay results: patent US9462808B2, “Pesticidal compositions” (Syngenta Participants AG, priority 2010, dated 2016)
Where two headings read alike, the source gives them in different places.

Legend:
[1] = tested on: Nilaparvata lugens (brown plant hopper, BPH); assay: Activity against Nilaparvata lugens (brown plant hopper, BPH) on rice, spray with safeners, 7 d after application (Example B2); assay type: in vivo; details: 168 h
Description: Eight replicates (pots with rice plants) were sprayed with respective test solutions. Test solutions contained the formulated test compound and the safener cloquintocet and N-(2-methoxybenzoyl)-4-[(methylaminocarbonyl)amino]-benzenesulfonamide at different ratios. 4 pots were infested with plant hopper nymphs right after application. 7d after application BPH mortality and plant safety were evaluated. […] Assessment on plant safety was done by measuring the average plant height per replicate.

[2] = tested on: Rhopalosiphum padi (cereal aphid); assay: Activity against Rhopalosiphum padi (cereal aphid) on wheat, spray with safener cloquintocet, 6 days after application (Example B1); assay type: in vivo; details: 144 h
Description: One replicate consisted of 4 wheat plants per pot. […] 9 days after seeding all wheat plants (10replicates) were sprayed with respective test solutions. […] 6 days after application aphid mortality and phytotoxicity were evaluated. […] Additionally the average plant height per replicate was measured.

| SMILES | melting point | also measured |
| --- | --- | --- |
| CCOC(=O)OC1=C(c2cc(C)ccc2C)C(=O)N(C)C12CCN(OC)CC2 [Compound P1.1] | 96 to 110 °C | – |
| CCOC(=O)OC1=C(c2c(C)cc(C)cc2C)C(=O)N(CC)C12CCN(OC)CC2 [Compound P1.8] | 101 to 103 °C | – |
| CCOC(=O)OC1=C(c2cc(C)c(C)cc2Br)C(=O)N(C)C12CCN(OC)CC2 [Compound P1.20] | 158 to 159 °C | – |
| CCOC(=O)OC1=C(c2cc(C)c(C)cc2Cl)C(=O)N(C)C12CCN(OC)CC2 [Compound P1.22] | 149 to 150 °C | – |
| CCOC(=O)OC1=C(c2c(C)cc(Cl)cc2C)C(=O)N(C)C12CCN(OC)CC2 [Compound P1.29] | – | mortality at 12.5 ppm ([1]; read-out: % mortality, corr., 12.5 ppm AI, Cloquintocet, ratio AI:safener 0.9:1, 7 d after application): 98%; mortality at 12.5 ppm ([1]; read-out: % mortality, corr., 12.5 ppm AI, Safener 2, ratio AI:safener 0.9:1, 7 d after application): 65%; mortality at 25 ppm ([1]; read-out: % mortality, corr., 25 ppm AI, Cloquintocet, ratio AI:safener 1.9:1, 7 d after application): 100%; mortality at 25 ppm ([1]; read-out: % mortality, corr., 25 ppm AI, Safener 2, ratio AI:safener 1.9:1, 7 d after application): 95%; mortality at 50 ppm ([1]; read-out: % mortality, corr., 50 ppm AI, Safener 2, ratio AI:safener 1.25:1, 7 d after application): 100%; mortality at 100 ppm ([1]; read-out: % mortality, corr., 100 ppm AI, Safener 2, ratio AI:safener 7.5:1, 7 d after application): 100%; mortality at 200 ppm ([1]; read-out: % mortality, corr., 200 ppm AI, Safener 2, ratio AI:safener 15:1, 7 d after application): 100%; mortality at 25 ppm ([2]; read-out: Efficacy (% mortality) against cereal aphids (Rhopalosiphum padi), test compound 25 ppm, adjuvant Mero 0.1% v/v, ratio AI:safener cell blank (no safener), wheat, 6 days after application, Abbott's formula): 97%; mortality at 25 ppm ([2]; read-out: Efficacy (% mortality) against cereal aphids (Rhopalosiphum padi), test compound 25 ppm, adjuvant Mero 0.1% v/v, safener cloquintocet, ratio AI:safener 1:1, wheat, 6 days after application, Abbott's formula): 96.6%; mortality at 25 ppm ([2]; read-out: Efficacy (% mortality) against cereal aphids (Rhopalosiphum padi), test compound 25 ppm, adjuvant Mero 0.1% v/v, safener cloquintocet, ratio AI:safener 1:2, wheat, 6 days after application, Abbott's formula): 96.9% |
| COCON1C(=O)C(c2cc(C)ccc2C)=C(OC(=O)CC(C)(C)C)C12CCN(OC)CC2 [Compound P1ii.5] | 93 to 95 °C | – |
| COCON1C(=O)C(c2cc(C)ccc2C)=C(OC)C12CCN(OC)CC2 [Compound P1ii.31] | 91 to 93 °C | – |
| CCOC(=O)OC1=C(c2c(F)ccc(C)c2Cl)C(=O)N(OCOC)C12CCN(OC)CC2 [Compound P1ii.61] | 116 to 119 °C | – |
| CCOC(=O)OC1=C(c2c(C)cc(Cl)cc2C)C(=O)N(OC)C12CCN(OC)CC2 [Compound P1ii.114] | 122 to 125 °C | – |
| CON1CCC2(CC1)C(O)=C(c1cc(C)ccc1C)C(=O)N2C [Compound P2.1] | 121 to 123 °C | – |
| CON1CCC2(CC1)C(O)=C(c1c(C)cc(C)cc1C)C(=O)N2CC1CC1 [Compound P2.8, 1-Cyclopropylmethyl-4-hydroxy-8-methoxy-3-(2,4,6-trimethyl-phenyl)-1,8-diaza-spiro[4.5]dec-3-en-2-one] | 223 to 225 °C | – |
| CCN1C(=O)C(c2c(C)cc(C)cc2C)=C(O)C12CCN(OC)CC2 [Compound P2.11] | 218 to 221 °C | – |
| CON1CCC2(CC1)C(O)=C(c1cc(C)c(C)cc1Br)C(=O)N2C [Compound P2.23] | 191 to 193 °C | – |
| CON1CCC2(CC1)C(O)=C(c1cc(C)c(C)cc1C)C(=O)N2C [Compound P2.25] | 183 to 186 °C | – |
| CON1CCC2(CC1)C(O)=C(c1cc(C)c(C)cc1Cl)C(=O)N2C [Compound P2.26, 3-(2-Chloro-4,5-dimethyl-phenyl)-4-hydroxy-8-methoxy-1-methyl-1,8-diaza-spiro[4.5]dec-3-en-2-one] | 191 to 192 °C | – |
| CON1CCC2(CC1)C(O)=C(c1cc(Br)c(C)cc1C)C(=O)N2C [Compound P2.28] | 182 to 183 °C | – |
| COCON1C(=O)C(c2c(C)cc(-c3ccc(Cl)cc3)cc2C)=C(O)C12CCN(OC)CC2 [Compound P2ii.15, 3-(4′-Chloro-3,5-dimethyl-biphenyl-4-yl)-4-hydroxy-8-methoxy-1-methoxymethoxy-1,8-diaza-spiro[4.5]dec-3-en-2-one] | 128 °C (dec.) | – |
| CON1CCC2(CC1)C(O)=C(c1c(C)cc(C)cc1C)C(=O)N2OCCOC1CCCCO1 (stereo not shown) [Compound P2ii.22] | 135 to 137 °C | – |
| COCON1C(=O)C(c2c(F)ccc(C)c2Cl)=C(O)C12CCN(OC)CC2 [Compound P2ii.60] | 155 to 158 °C | – |

The next lines start with results.

| melting point | SMILES | also measured |
| --- | --- | --- |
| 63 to 64 °C | COCCON1C(=O)C(c2cc(Br)c(C)cc2C)=C(O)C12CCN(OC)CC2 [Compound P2ii.73] | – |
| 86 to 87 °C | CON1CCC2(CC1)C(O)=C(c1cc(Br)c(C)cc1C)C(=O)N2OC [Compound P2ii.75] | – |
| 71 to 74 °C | COCCON1C(=O)C(c2cc(Br)c(F)cc2C)=C(O)C12CCN(OC)CC2 [Compound P2ii.87] | – |
| 64 to 67 °C | COCON1C(=O)C(c2cc(Br)c(F)cc2C)=C(O)C12CCN(OC)CC2 [Compound P2ii.89] | – |
| 169 to 172 °C | CON1CCC2(CC1)C(O)=C(c1c(C)cc(C)cc1C)C(=O)N2OCC1CCCCC1 [Compound P2ii.96] | – |
| 161 to 164 °C | COCCON1C(=O)C(c2c(C)cc(Cl)cc2C)=C(O)C12CCN(OC)CC2 [Compound P2ii.101] | – |
| 88 to 92 °C | CON1CCC2(CC1)C(O)=C(c1c(C)cc(Cl)cc1C)C(=O)N2OC [Compound P2ii.102] | – |
| 176 to 178 °C | COCON1C(=O)C(c2c(C)cc(Cl)cc2C)=C(O)C12CCN(OC)CC2 [Compound P2ii.104] | – |
| 137 to 139 °C | CON1CCC2(CC1)C(O)=C(c1c(C)cc(Cl)cc1C)C(=O)N2OC1CCCO1 (stereo not shown) [Compound P2ii.105] | – |
